Assay results from US20100093076A1, “SOLUBLE IL-27 RECEPTOR” (priority 2006, published 2010).

Test system: acute graft-vs-host disease
Test: Mouse model of acute graft-vs-host disease
Format: in vivo
Conditions: acute GVHD
Experimental: Efficacy of IL-27 antagonists was assayed in a mouse model of acute graft-vs-host disease (Durie et al., J. Clin. Invest. 94:1333-1338, 1994). Parental mice (C57BL/6; n=12) were euthanized, and their spleens were collected. The pooled spleens were smashed using two glass slides to dissociate splenic cells. Lysis buffer was added to the splenocyte suspension to remove red blood cells. The cells were washed in RPMI 1640 (10% FBS) medium and resuspended in an appropriate amount of PBS to make a cell concentration of 300 million cells/ml. Protein treatments were administered by intraperitoneal injection every other day beginning on day-1 and continuing until day 15. Dexamethasone (DEX) was administered by injection daily on days 0 through 6. On day 0, 75 million donor splenic lymphocytes from B6 mice (250.micro.1 per injection) were injected intravenously into recipient mice (C57BL/6×DBA/2 F1 (BDF1); n=10 per group) mice. Mice were monitored 3 times a week for changes in body weight and any signs of moribundity. Mice that lost >20% of their initial body weight were euthanized. Otherwise, mice were sacrificed 18 days after the cell transfer. Spleens were collected, and a CTL-specific lysis assay using P815 cells was performed as a quantitative measurement of acute GVHD. Furthermore, spleens were stained for T- and B-cell markers, including MHC class I markers (H2^b and H2^d) to look at donor/recipient cell ratio (acute GVHD spleen cells are mostly donor cells). Sera were collected to measure serum level of IgG1, IgG2a, and IgE by ELISA, and cytokine and chemokine levels using a commercially available kit (Luminex Corporation, Austin, Tex.).

human IL-27RA-Fc5: Extracellular domain of human IL27RA (amino acids 1 to 512 of SEQ ID NO:3) fused to Fc5, effector minus human gamma1 Fc; SEQ ID NO:16
colon length shortening: did prevent colon length shortening | splenomegaly: did not prevent splenomegaly | host spleen cells, CD4+T cells, and Treg cells (BDF1 recipients, day 18): maintained host spleen cells, CD4+T cells, and Treg cells | Body weight loss (versus PBS control group): not severe and was significantly less than in the PBS control group | IL-2 level (serum, arrows, key not given): ↑↑↑ | IL-5 level (serum, arrows, key not given): ↑↑ | IL-6 level (serum, arrows, key not given): ↓↓↓ | IgE level (serum, arrows, key not given): ↑ | IgG1 level (serum, arrows, key not given): ↑↑ | IgG2A level (serum, arrows, key not given): ↑↑
